In US9662327B2 (AGIOS PHARMACEUTICALS, INC, priority 2011, dated 2017) one finds IC50 data, which are given here for 24 compounds.

The target in the assay is IDH1 R132H (Homo sapiens (Human), UniProt O75874, R132H). As to the kind of experiment: Assays for IDH1 R132H Inhibitors (NADPH/aKG, resazurin detection). To be noted: IDH1 R132H enzyme. Format: biochemical. In short, it runs like this: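 Mutant enzyme in 150 mM NaCl, 10 mM MgCl2, 20 mM Tris pH 7.5, 0.03% BSA; compound in DMSO added to substrate mix of 8 uM NADPH and 2 mM aKG. Reaction ran 50 min at room temperature, then resazurin detection mix (30 μM) added for 5 min at room temperature.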

The mark [1] stands for this setting: Table 2, read-out: IDHR132H Activity.

SMILES strings stand for the structures. Like-named read-outs stand apart in the source and are kept apart here.

Sequence of IDH1 R132H (O75874 whole entry R132H): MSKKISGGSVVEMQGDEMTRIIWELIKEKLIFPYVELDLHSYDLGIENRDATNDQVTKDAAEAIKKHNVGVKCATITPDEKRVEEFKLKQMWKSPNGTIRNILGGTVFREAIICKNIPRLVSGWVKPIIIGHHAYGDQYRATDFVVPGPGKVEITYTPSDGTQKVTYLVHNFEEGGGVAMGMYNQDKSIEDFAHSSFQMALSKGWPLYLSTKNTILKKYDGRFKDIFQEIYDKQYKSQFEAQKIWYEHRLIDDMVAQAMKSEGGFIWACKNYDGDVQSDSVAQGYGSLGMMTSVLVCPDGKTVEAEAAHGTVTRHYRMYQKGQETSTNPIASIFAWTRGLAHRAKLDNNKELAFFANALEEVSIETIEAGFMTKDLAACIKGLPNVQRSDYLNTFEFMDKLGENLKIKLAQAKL

Turning to `CC(C)c1nc(N2CC(C)N(C(=O)c3ccco3)CC2C)c(C#N)c2c1COCC2` (stereo not drawn) [Compound 114, 6-(4-(furan-2-carbonyl)-2,5-dimethylpiperazin-1-yl)-8-isopropyl-3,4-dihydro-1H-pyrano[3,4-c]pyridine-5-carbonitrile], the IC50 under setting [1] was 1000 to 10000 nM.
In the case of `CC(C)[C@@H]1CN(c2nc(C3CC3)c3c(c2C#N)CC(C)(C)OC3)CCN1C(=O)COCCO` [Compound 348], the IC50 under setting [1] lay within 1000 to 10000 nM.
On to `CC(C)[C@@H]1CN(c2nc(C3CCC3)c3c(c2C#N)CC(C)(C)OC3)CCN1C(=O)C1CC1` [Compound 396, (R)-8-cyclobutyl-6-(4-(cyclopropanecarbonyl)-3-isopropylpiperazin-1-yl)-3,3-dimethyl-3,4-dihydro-1H-pyrano[3,4-c]pyridine-5-carbonitrile], for which the IC50 under setting [1] was in the range of 500 to 1000 nM.
As to `CC(C)[C@@H]1CN(c2nc(C3CC3)c3c(c2C#N)CC(C)(C)OC3)CCN1C(=O)OC(C)(C)C` [Compound 306, (R)-tert-butyl 4-(5-cyano-8-cyclopropyl-3,3-dimethyl-3,4-dihydro-1H-pyrano[3,4-c]pyridin-6-yl)-2-isopropylpiperazine-1-carboxylate], the IC50 under setting [1] is 1000 to 10000 nM.
`CC(C)[C@@H]1CN(c2nc(C3CC3)c3c(c2C#N)CC(C)(C)OC3)CCN1C(=O)CCC(=O)O` [Compound 416, (R)-4-(4-(5-cyano-8-cyclopropyl-3,3-dimethyl-3,4-dihydro-1H-pyrano[3,4-c]pyridin-6-yl)-2-isopropylpiperazin-1-yl)-4-oxobutanoic acid]: the IC50 under setting [1] was 1000 to 10000 nM.
For `C[C@@H]1CN(c2nc(C3CCCCC3)c3c(c2C#N)CCOC3)CCN1C(=O)Nc1ccccc1F` [Compound 300, (R)-4-(5-cyano-8-cyclohexyl-3,4-dihydro-1H-pyrano[3,4-c]pyridin-6-yl)-N-(2-fluorophenyl)-2-methylpiperazine-1-carboxamide], under setting [1], the IC50 is 1000 to 10000 nM.
As to `CC(C)c1nc(N2CCN(C(=O)c3cscn3)[C@H](C)C2)c(C#N)c2c1COC(C)(C)C2` [Compound 252, (R)-8-isopropyl-3,3-dimethyl-6-(3-methyl-4-(thiazole-4-carbonyl)piperazin-1-yl)-3,4-dihydro-1H-pyrano[3,4-c]pyridine-5-carbonitrile], the IC50 under setting [1] was in the range of 1000 to 10000 nM.
Turning to `CSCCC(=O)N1CCN(c2nc(C3CC3)c3c(c2C#N)CC(C)(C)OC3)C[C@H]1C(C)C` [Compound 269, (R)-8-cyclopropyl-6-(3-isopropyl-4-(3-(methylthio)propanoyl)piperazin-1-yl)-3,3-dimethyl-3,4-dihydro-1H-pyrano[3,4-c]pyridine-5-carbonitrile], the IC50 under setting [1] is below 500 nM.
On to `Cc1ccc(-c2nc(N3CC(C)N(C(=O)c4ccco4)C(C)C3)c(C#N)c3c2COCC3)cc1` (stereo not drawn) [Compound 112], for which the IC50 under setting [1] was 1000 to 10000 nM.
Still for that read-out and setting: as for `COc1cccc(CC(=O)N2CCN(c3nc(C4CCCCC4)c4c(c3C#N)CCOC4)C[C@H]2C)c1` [Compound 189, (R)-8-cyclohexyl-6-(4-(2-(3-methoxyphenyl)acetyl)-3-methylpiperazin-1-yl)-3,4-dihydro-1H-pyrano[3,4-c]pyridine-5-carbonitrile], the figure is 1000 to 10000 nM.
Regarding `COc1ccccc1CC(=O)N1CCN(c2nc(C3CCCCC3)c3c(c2C#N)CCOC3)C[C@H]1C` [Compound 224, (R)-8-cyclohexyl-6-(4-(2-(2-methoxyphenyl)acetyl)-3-methylpiperazin-1-yl)-3,4-dihydro-1H-pyrano[3,4-c]pyridine-5-carbonitrile], the IC50 under setting [1] fell in the range of 1000 to 10000 nM.
Consider `CC(C)[C@@H]1CN(c2nc(C3CC3)c3c(c2C#N)CC(C)(C)OC3)CCN1C(=O)C1CCOC1` (stereo partly drawn) [Compound 266], for which the IC50 under setting [1] lay in the range of 500 to 1000 nM.
The same measure, in the same setting: for `CC(C)c1nc(N2CCN(C(=O)c3cccs3)[C@H](C)C2)c(C#N)c2c1COC(C)(C)C2` [Compound 246, (R)-8-isopropyl-3,3-dimethyl-6-(3-methyl-4-(thiophene-2-carbonyl)piperazin-1-yl)-3,4-dihydro-1H-pyrano[3,4-c]pyridine-5-carbonitrile] the value was 1000 to 10000 nM.
Take `COCCC(=O)N1CCN(c2nc(C3CCCCC3)c3c(c2C#N)CCOC3)C[C@H]1C` [Compound 240, (R)-8-cyclohexyl-6-(4-(3-methoxypropanoyl)-3-methylpiperazin-1-yl)-3,4-dihydro-1H-pyrano[3,4-c]pyridine-5-carbonitrile]: under setting [1], the IC50 lay in the range of 1000 to 10000 nM.
On to `CC(C)[C@@H]1CN(c2nc(C3CC3)c3c(c2C#N)CC(C)(C)OC3)CCN1C(=O)Cn1cc(Br)cn1` [Compound 415, (R)-6-(4-(2-(4-bromo-1H-pyrazol-1-yl)acetyl)-3-isopropylpiperazin-1-yl)-8-cyclopropyl-3,3-dimethyl-3,4-dihydro-1H-pyrano[3,4-c]pyridine-5-carbonitrile], for which, under setting [1], the IC50 is 500 to 1000 nM.
As to `CC(C)[C@@H]1CN(c2nc(C3CCCCC3)c3c(c2C#N)CCOC3)CCN1C(=O)c1ccco1` [Compound 182, (R)-8-cyclohexyl-6-(4-(furan-2-carbonyl)-3-isopropylpiperazin-1-yl)-3,4-dihydro-1H-pyrano[3,4-c]pyridine-5-carbonitrile], the IC50 under setting [1] was 1000 to 10000 nM.
On the same count and under the same terms, as for `CC(C)[C@@H]1CN(c2nc(C3CC3)c3c(c2C#N)CC(C)(C)OC3)CCN1C(=O)c1cccnc1` [Compound 271], the figure is 1000 to 10000 nM; as for `COCC(=O)N1CCN(c2nc(C3CC3)c3c(c2C#N)CC(C)(C)OC3)C[C@H]1C(C)C` [Compound 347, (R)-8-cyclopropyl-6-(3-isopropyl-4-(2-methoxyacetyl)piperazin-1-yl)-3,3-dimethyl-3,4-dihydro-1H-pyrano[3,4-c]pyridine-5-carbonitrile], below 500 nM; as for `CC1CN(c2nc(C3CCCCC3)c3c(c2C#N)CCOC3)CCN1C(=O)c1ccoc1` (stereo not drawn) [Compound 133, 8-cyclohexyl-6-(4-(furan-3-carbonyl)-3-methylpiperazin-1-yl)-3,4-dihydro-1H-pyrano[3,4-c]pyridine-5-carbonitrile], 1000 to 10000 nM.
For the compound `COC(=O)OC[C@@H]1C[C@H]1C(=O)N1CCN(c2nc(C3CC3)c3c(c2C#N)CC(C)(C)OC3)C[C@H]1C(C)C` [Compound 472, ((1R,2R)-2-((R)-4-(5-cyano-8-cyclopropyl-3,3-dimethyl-3,4-dihydro-1H-pyrano[3,4-c]pyridin-6-yl)-2-isopropylpiperazine-1-carbonyl)cyclopropyl)methyl methyl carbonate], for the setting “Table 3, read-out: R132H IC50”, the IC50 is below 500 nM.
Take `CCOC(=O)N1CCN(c2nc(C3CC3)c3c(c2C#N)CC(C)(C)OC3)C[C@H]1C(C)C` [Compound 367]: the IC50 under setting [1] is 1000 to 10000 nM.
In the case of `CC1CN(c2nc(C3CCCCC3)c3c(c2C#N)CCOC3)CCN1C(=O)c1ccco1` (stereo not drawn) [Compound 132, 8-cyclohexyl-6-(4-(furan-2-carbonyl)-3-methylpiperazin-1-yl)-3,4-dihydro-1H-pyrano[3,4-c]pyridine-5-carbonitrile], the IC50 under setting [1] was in the range of 1000 to 10000 nM.
On to `Cc1ccoc1C(=O)N1CCN(c2nc(C3CC3)c3c(c2C#N)CC(C)(C)OC3)C[C@H]1C(C)C` [Compound 193], for which the IC50 under setting [1] lay within 1000 to 10000 nM.
On the same count and under the same terms, for `CC(C)[C@@H]1CN(c2nc(C3CC3)c3c(c2C#N)CC(C)(C)OC3)CCN1C(=O)CC(=O)O` [Compound 418, (R)-3-(4-(5-cyano-8-cyclopropyl-3,3-dimethyl-3,4-dihydro-1H-pyrano[3,4-c]pyridin-6-yl)-2-isopropylpiperazin-1-yl)-3-oxopropanoic acid] the value was 1000 to 10000 nM.
